# ChEMBL document CHEMBL1128834, “Potent mammalian topoisomerase II inhibitors: 1-cyclopropyl-6,8-difluoro-1,4-dihydro-7-(2,6-dimethyl-4-pyridinyl)-4-substituted-quinolines” (Bioorg Med Chem Lett, 1995)
# Tested on: P388
# Assay: In vitro cytotoxicity was determined by quantitating P388 murine leukemia cells on a oultier counter following a 48 hour exposure of cells to the test compound
# Assay type: functional, cell-based
# Conditions: Mus musculus, P388, 48 h
row,Structure (SMILES),IC50 [µM]
1,Cc1cc(-c2c(F)cc3/c(=N/N)ccn(C4CC4)c3c2F)cc(C)n1,3

# Tested on: P388
# Assay: In vitro cytotoxicity was determined by quantitating P388 murine leukemia cells on a coultier counter following a 48 hour exposure of cells to the test compound
# Assay type: functional, cell-based
# Conditions: Mus musculus, P388, 48 h
row,Structure (SMILES),IC50 [µM]
1,Cc1cc(-c2c(F)cc3/c(=N/Nc4ccccn4)ccn(C4CC4)c3c2F)cc(C)n1,1
2,Cc1cc(-c2c(F)cc3c(=O)ccn(C4CC4)c3c2F)cc(C)n1,9.7
3,Cc1cc(-c2c(F)cc3/c(=N/N(C)C)ccn(C4CC4)c3c2F)cc(C)n1,0.27

# Target: DNA topoisomerase II (Homo sapiens, UniProt P11388+Q02880)
# Assay: Inhibitory activity in a cell-free assay of DNA cleavage mediated by purified HeLa cell topoisomerase II.
# Conditions: not given
row,EC50 [µM],Structure (SMILES)
1,3.2,Cc1cc(-c2c(F)cc3/c(=N/NCCO)ccn(C4CC4)c3c2F)cc(C)n1
2,3.1,Cc1cc(-c2c(F)cc3/c(=N/NC(N)=O)ccn(C4CC4)c3c2F)cc(C)n1
3,1.4,Cc1cc(-c2c(F)cc3/c(=N\O)ccn(C4CC4)c3c2F)cc(C)n1
4,14,Cc1cc(-c2c(F)cc3/c(=N/CCN(C)C)ccn(C4CC4)c3c2F)cc(C)n1
5,1.7,Cc1cc(-c2c(F)cc3/c(=N/N)ccn(C4CC4)c3c2F)cc(C)n1
6,2.6,CO/N=c1/ccn(C2CC2)c2c(F)c(-c3cc(C)nc(C)c3)c(F)cc12
7,1.9,CN/N=c1\ccn(C2CC2)c2c(F)c(-c3cc(C)nc(C)c3)c(F)cc12
8,76,Cc1cc(-c2c(F)cc3c(=S)ccn(C4CC4)c3c2F)cc(C)n1
9,12,Cc1cc(-c2c(F)cc3c(=N)ccn(C4CC4)c3c2F)cc(C)n1
10,20,CC(=O)N/N=c1\ccn(C2CC2)c2c(F)c(-c3cc(C)nc(C)c3)c(F)cc12
11,2.3,Cc1cc(-c2c(F)cc3/c(=N/N(C)C)ccn(C4CC4)c3c2F)cc(C)n1
12,2.4,Cc1cc(-c2c(F)cc3/c(=N/C4CC4)ccn(C4CC4)c3c2F)cc(C)n1

# More lines, now with the values behind:
row,Structure (SMILES),EC50 [µM]
1,Cc1cc(-c2c(F)cc3c(c2F)N(C2CC2)C=CC3=C(C#N)C#N)cc(C)n1,6.3
2,Cc1cc(-c2c(F)cc3c(c2F)N(C2CC2)C=C/C3=C/C#N)cc(C)n1,4
3,Cc1cc(-c2c(F)cc3/c(=N/Sc4ccccn4)ccn(C4CC4)c3c2F)cc(C)n1,3.8
4,Cc1cc(-c2c(F)cc3/c(=N/c4ccccc4O)ccn(C4CC4)c3c2F)cc(C)n1,1.6
5,Cc1cc(-c2c(F)cc3/c(=N/Nc4cnc5ccccc5c4)ccn(C4CC4)c3c2F)cc(C)n1,92
6,Cc1cc(-c2c(F)cc3/c(=N/CCCN(C)C)ccn(C4CC4)c3c2F)cc(C)n1,5.5
7,Cc1cc(-c2c(F)cc3/c(=N/N4C(=O)c5ccccc5C4=O)ccn(C4CC4)c3c2F)cc(C)n1,16
8,CCOC(=O)/C(C#N)=C1\C=CN(C2CC2)c2c1cc(F)c(-c1cc(C)nc(C)c1)c2F,4.8
9,Cc1cc(-c2c(F)cc3/c(=N/Nc4ccccn4)ccn(C4CC4)c3c2F)cc(C)n1,0.98
10,Cc1ccc(S(=O)(=O)/N=c2\ccn(C3CC3)c3c(F)c(-c4cc(C)nc(C)c4)c(F)cc23)cc1,45
11,Cc1cc(-c2c(F)cc3/c(=N/c4ccc(N)cc4)ccn(C4CC4)c3c2F)cc(C)n1,7.6
12,Cc1cc(-c2c(F)cc3/c(=N/Nc4c5ccccc5nc5ccccc45)ccn(C4CC4)c3c2F)cc(C)n1,21
13,Cc1cc(-c2c(F)cc3/c(=N/c4ccccn4)ccn(C4CC4)c3c2F)cc(C)n1,3.6
14,Cc1cc(-c2c(F)cc3/c(=N/Sc4ccc(Cl)cc4)ccn(C4CC4)c3c2F)cc(C)n1,9.4

# Same assay, conditions: read-out: EC50
row,EC50 [µM],Structure (SMILES)
1,2.7,Cc1cc(-c2c(F)cc3c4nn(-c5ccccc5)c(=O)c-4cn(C4CC4)c3c2F)cc(C)n1

# Tested on: Mus musculus
# Assay: In vivo antitumor activity was observed in mice at a dose of […] administered intravenously, subcutaneously
# Assay type: functional
# Conditions: route intravenous
row,Structure (SMILES),T/C [%]
1,Cc1cc(-c2c(F)cc3/c(=N/Nc4ccccn4)ccn(C4CC4)c3c2F)cc(C)n1,37

# Tested on: Mus musculus
# Assay: In vivo antitumor activity was observed in mice at a dose of 96 mg/kg administered intravenously
# Assay type: functional
# Conditions: route intravenous
row,Structure (SMILES),T/C [%]
1,COc1cc([C@@H]2c3cc4c(cc3[C@@H](O[C@@H]3O[C@@H]5CO[C@@H](C)O[C@H]5[C@H](O)[C@H]3O)[C@H]3COC(=O)[C@H]23)OCO4)cc(OC)c1O [ETOPOSIDE],3

# Tested on: P388
# Assay: In vitro cytotoxicity was determined by quantitating P388 murine leukemia cells on a Coulter Counter following a 48 hour exposure of cells to the test compound
# Assay type: functional, cell-based
# Conditions: Mus musculus, P388, 48 h
row,Structure (SMILES),IC50 [µM]
1,COc1cc([C@@H]2c3cc4c(cc3[C@@H](O[C@@H]3O[C@@H]5CO[C@@H](C)O[C@H]5[C@H](O)[C@H]3O)[C@H]3COC(=O)[C@H]23)OCO4)cc(OC)c1O [ETOPOSIDE],0.12
